Test results: US7923573B2, “Benzene compound having 2 or more substituents” (Daiichi Sankyo Company, Limited, priority 2004, dated 2011)

molecular target: T1, LXRα (Homo sapiens, UniProt Q13133); assay: Co-transfection assay (LXR/LXRE luciferase reporter), LXRα; format: cell-based; settings: CV-1 cells transfected with hLXRα and LXRE luciferase reporter; agonist activity; read-out: EC50 value against LXRα
T1 construct: expressed in transfected cells; host or cells: CV-1 African green monkey kidney cells (ATCC CCL-70)
T1 sequence (Q13133 1-447): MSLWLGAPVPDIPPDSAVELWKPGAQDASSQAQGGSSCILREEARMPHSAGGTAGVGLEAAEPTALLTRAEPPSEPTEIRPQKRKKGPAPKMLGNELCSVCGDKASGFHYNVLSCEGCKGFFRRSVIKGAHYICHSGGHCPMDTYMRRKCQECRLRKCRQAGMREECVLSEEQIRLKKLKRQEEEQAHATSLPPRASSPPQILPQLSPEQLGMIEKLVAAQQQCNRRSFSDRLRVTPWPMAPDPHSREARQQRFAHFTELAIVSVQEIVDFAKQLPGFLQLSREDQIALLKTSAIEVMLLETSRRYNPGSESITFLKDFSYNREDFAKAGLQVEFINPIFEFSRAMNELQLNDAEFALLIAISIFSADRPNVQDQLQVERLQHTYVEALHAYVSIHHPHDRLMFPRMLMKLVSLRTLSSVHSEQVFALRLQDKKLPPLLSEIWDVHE
T1 sequence (P19793 1-462 partner): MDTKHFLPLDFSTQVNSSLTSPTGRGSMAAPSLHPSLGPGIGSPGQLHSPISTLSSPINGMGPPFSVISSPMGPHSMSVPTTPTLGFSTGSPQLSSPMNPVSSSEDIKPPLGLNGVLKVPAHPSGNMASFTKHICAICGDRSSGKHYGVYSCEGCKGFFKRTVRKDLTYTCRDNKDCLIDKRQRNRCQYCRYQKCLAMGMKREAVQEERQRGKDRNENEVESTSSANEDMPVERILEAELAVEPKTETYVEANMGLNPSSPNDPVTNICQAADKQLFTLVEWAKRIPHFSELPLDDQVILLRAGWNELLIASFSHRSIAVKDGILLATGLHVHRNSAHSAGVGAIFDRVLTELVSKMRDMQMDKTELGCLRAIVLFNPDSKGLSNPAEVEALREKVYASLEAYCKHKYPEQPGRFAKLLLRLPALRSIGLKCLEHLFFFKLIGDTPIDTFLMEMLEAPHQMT
Text: The effect of activating or inhibiting LXR transcription activity of a test compound can be measured by a co-transfection which is a cell-based assay. LXR is known to function by forming a heterodimer with RXR. In a co-transfection assay, LXR and RXR expression plasmids and a luciferase reporter expression plasmid containing three copies of an LXR-RXR heterodimer-responding DNA sequence are first inserted into mammalian cells by transient transfection. Next, when the transfected cells are treated with a test compound having LXR agonist activity, the transcription activating effect of LXR is enhanced, and the LXR agonist activity of a test compound can be measured as an increase in luciferase activity.
(1) CV-1 African green monkey kidney cells (ATCC CCL-70)
(2) Co-transfection expression plasmid, pcDNA-hLXRα or pcDNA-hLXRβ, reporter (LXREx3-pTAL-Luc Vector)
(3) Lipofect AMINE, Plus Reagent (Invitrogen) transfection reagent
(4) Cell lysis buffer [Passive lysis buffer; 5× (Promega Corporation) is diluted with distilled water]
(5) Luciferase assay reagent (Promega Corporation)
(6) Medium (Dulbecco's Modified Eagle Medium (Gibco) 500 ml, Gentamicin Reagent Solution (Gibco) 2.5 ml, 2 mM L-Gluta Max I Supplement (Gibco) 5.0 ml, MEM Sodium pyruvate solution (Gibco) 5.0 ml, penicillin-streptomycin (Gibco) 5.0 ml, charcoal/dextran-treated FBS (HyClone) 50 ml) (7) OPTI-MEM I Reduced-Serum Medium (Gibco) Adjustment of Screening Reagents
The aforementioned CV-1 cells were disseminated into a 96-well assay plate (Costar 3610) to a concentration of 2×10^4 cells/[…]/well followed by incubating overnight at 37° C.
DNA transfection was carried out according to the protocol provided with the transfection reagent. 10 μl of OPTI-MEM I Reduced-Serum Medium (Gibco) and 0.5 μl of Lipofect AMINE (Invitrogen) were added to two 50 ml tubes followed by shaking the mixed solutions to obtain Solution A. The substances of (1) below were respectively added to each tube followed by shaking the mixed solutions and allowing to stand undisturbed for 15 minutes to obtain Solution B. In addition, Solution C was obtained by carrying out the same procedure using the substances of (2) below.
(1) 10 μl of OPTI-MEM I Reduced-Serum Medium, 1 μl of Plus Reagent (Invitrogen) and 0.1 μg of DNA [PCMX-LXRα (33 ng) and LXRE (66 ng)];
(2) 10 μl of OPTI-MEM I Reduced-Serum Medium, 1 μl of Plus Reagent (Invitrogen) and 0.1 μg of DNA [PCMX-LXRβ (33 ng) and LXRE (66 ng)].
The entire amount of the aforementioned Solution A was respectively added to the aforementioned Solution B followed by shaking and allowing to stand undisturbed for 15 minutes to obtain LXRα solution. In addition, LXRβ solution was obtained by carrying out the same procedure using the aforementioned Solutions C and A.
After removing the medium from the 96-well assay plate used to Incubate the CV-1 cells as described above by decanting, and completely removing any moisture, 50 μl/well of OPTI-MEM I Reduced-Serum Medium were added to each well followed by addition of the aforementioned LXRα solution or LXRβ solution to each well at 20 μl/well and incubating for 3 hours at 37° C.
Three hours later, 20% charcoal FBS-DMEM was added to each well at 70 μl/well. FBS-DMEM used for the medium was prepared by mixing charcoal and dextran-treated FBS at a ratio of 9:1. Next, test compounds adjusted to concentrations of 1 mM, 0.3 mM, 0.1 mM, 30 μM, 10 μM, 3 μM, 1 μM or 0 μM with DMSO were added to each well at 1.4 μl/well. […]

Compound | EC50 [µM]
CC(C)(C)OC(=O)c1c(COc2ccc(-c3ccc(C4(C(=O)O)CC4)cc3)cc2)ccc(C(F)(F)F)c1O [Example 15, 1-(4′-{[2-(tert-Butoxycarbonyl)-3-hydroxy-4-(trifluoromethyl)benzyl]oxy}-1,1′-biphenyl-4-yl)cyclopropanecarboxylic acid] | ≤ 5
CNC(=O)Cc1ccc(-c2ccc(OCc3ccc(C(F)(F)F)c(O)c3C(=O)OC(C)(C)C)cc2)cc1 [Example 50, tert-Butyl 2-hydroxy-6-[({4′-[2-(methylamino)-2-oxoethyl]-1,1′-biphenyl-4-yl}oxy)methyl]-3-trifluoromethylbenzoate] | ≤ 5
CN(C)C(=O)Cc1ccc(-c2ccc(OCc3ccc(C(F)(F)F)c(O)c3C(=O)OC(C)(C)C)cc2)cc1 [Example 49, tert-Butyl 6-[({4′-[2-(dimethylamino)-2-oxoethyl]-1,1′-biphenyl-4-yl}oxy)methyl]-2-hydroxy-3-(trifluoromethyl)benzoate] | ≤ 5
CC(C)(C)OC(=O)c1c(COc2ccc(-c3cc(CC(=O)O)ccc3F)cc2)ccc(C(F)(F)F)c1O [Example 52, (4′-{[2-(tert-Butoxycarbonyl)-3-hydroxy-4-(trifluoromethyl)benzyl]oxy}-6-fluoro-1,1′-biphenyl-3-yl)acetic acid] | ≤ 5
CC(C)(C)OC(=O)c1c(COc2ccc(-c3ccc(CC(=O)O)cc3)c(F)c2)ccc(C(F)(F)F)c1O [Example 14, (4′-{[2-(tert-Butoxycarbonyl)-3-hydroxy-4-(trifluoromethyl)benzyl]oxy}-2′-fluoro-1,1′-biphenyl-4-yl)acetic acid] | ≤ 5
